The target of series [1] is T1, human enteropeptidase (Homo sapiens, UniProt P98073).
T1 construct: purchased ITSI-Biosciences, LLC #REN-260
In words: Human enteropeptidase enzyme assay. Format: biochemical. On the procedure: Human recombinant enteropeptidase (#REN-260, ITSI-Biosciences, LLC) was diluted with an assay buffer (50 mM tricine (pH 8.0), 0.01(w/v)% Tween 20, 10 mM CaCl2) to prepare a 24 mU/mL enzyme solution. Subsequently, 5FAM–Abu–[…]CPQ2)–Lys–Lys–NH2 (purity: 97.2%, CPC Scientific, Inc.) was diluted with an assay buffer to prepare a 2.1 μM substrate solution. Compounds were dissolved in DMSO and then diluted in the assay buffer. The compound solution (5 μL/well) and the substrate solution (5 μL/well) were added to a 384-well black plate (#784076, Greiner Bio-One) and mixed. Then, the enzyme solution (5 μL/well) was added to the plate and mixed to start the reaction. The fluorescence intensity was measured at an excitation wavelength of 485 nm and a fluorescence wavelength of 535 nm using a fluorescence plate reader EnVision (PerkinElmer Inc.). Also, the same reaction as above was performed except that the test compound was not added (test compound non-supplemented group). In addition, the same reaction as above was performed except that neither the test compound nor the enzyme was added (control group).
Inhibition rate (%) = (1 – (fluorescence intensity of the test compound supplemented group – fluorescence intensity of the control group)/(fluorescence intensity of the test compound non-supplemented group – fluorescence intensity of the control group)) × 100.

Series [2] in a line: Aqueous stability at pH 1.2/6.8. Format: physicochemical. The conditions noted are these: 24 h; for stability at pH 1.2 (% decomposed): pH 1.2, 37 °C; for stability at pH 6.8 (% decomposed): pH 6.8, 37 °C. How it is done:
Sample solutions in pH 1.2/6.8 media (first/second fluids for the disintegration test in the Japanese Pharmacopoeia 17th edition, including 10% dimethyl sulfoxide if needed, 10 μg/mL) were prepared for the compounds and incubated at 37 °C. The sample solutions were measured initially and at 24 h using HPLC, and peak analysis was conducted. Residual contents (%) of the compounds in pH 1.2/6.8 media at 37 °C after 24 h of incubation of the initial solutions were calculated using the peak areas.

Series [3] in a line: Kinetic aqueous solubility at pH 1.2/6.8. The conditions noted are these: aqueous medium, kinetic from dmso stock. Format: physicochemical.
The test system of a further series is High-Fat-Diet-Fed Mice. In words: Increase in fecal protein output in high-fat-diet-fed mice. Format: in vivo, mouse. The conditions noted are these: 10 mg/kg, oral. How it is done: A high-fat diet (HFD)-fed mouse (D12079B diet, male, 14–21 weeks old) was used for the in vivo assay. For compound screening, mice were orally administered with either the test compound (10 mg/kg) or 0.5% methylcellulose (MC) as a vehicle control. For the assessment of efficacy by systemic exposure of the compound, mice were subcutaneously administered with compound 2a (10 mg/kg) or saline as a vehicle control and compared with those administered oral treatment (60 mg/kg). Doses were selected to achieve equivalent systemic exposure as the area under the curve over 24 h based on pharmacokinetic data of both oral and subcutaneous administration. Whole feces were collected overnight, and the fecal protein output was evaluated as described previously.[33]

Series [4] is described as follows: PAMPA (parallel artificial membrane permeability assay). Format: in vitro ADME. The conditions noted are these: for Papp: PAMPA.
Another series deals with DIO mice. The conditions noted are these: growth phase; cited from earlier work.
For series [5], the target named is T1, human enteropeptidase. Briefly: Dissociation assay (recovery of active enzyme after rapid dilution). Format: biochemical. The note with it: rapid dilution after 2 h preincubation of compound and enzyme. From the text:
Although not all reaction constants for 1c could be identified, the in vitro IC50 value could be used as an indicator of the combination of k1, k–1, and k2. In this case, the IC50 value of a compound is derived from its affinity for enteropeptidase (k1 and k–1) and its reactivity against enteropeptidase (k2). […] As the affinity of a compound for enteropeptidase is expected to largely contribute to the IC50 value based on initial velocities (IC50(initial)) relative to the IC50 value based on the steady state (IC50(app)), we performed chemical modifications based on IC50(initial). […] Because T1/2 can be an indicator of k3, we focused on compounds with low IC50(initial) values and long T1/2 values.
For dissociation assay, compounds were dissolved in DMSO and then diluted in assay buffer (50 mM Tricine pH 8.0, 0.01(w/v)% Tween20, 10 mM CaCl2). 10 μL of compound solution was added in 96-well plate (corning), and then, 10 μL of 100 mU/mL human recombinant enteropeptidase (ITSI-Biosciences) solution was added into the plate and incubated at room temperature for 2 h. […] After incubation, 2 μL of the compound-enzyme mixture was transferred to a 96-well black plate (Corning) and 200 μL of substrate solution (3 μM 5FAM–Abu–[…]CPQ2)–Lys–Lys–NH2 (CPC Scientific)) was added into the well. By rapid dilution, the inhibitor concentration went to 10-fold below the IC50 from 10-fold above the IC50. The fluorescence was measured each 2 min at excitation wavelength 485 nm and emission wavelength 535 nm by EnVision (Perkin Elmer). The progress curves were fitted to following equation to determine the values for koff and dissociation half-life T1/2 according to the following equations. [drawing 4] 1 where t is time and F is fluorescence from initial rate vo to steady state rate vs. [drawing 5] 2

Setting [6] is: 6 min incubation of enzyme, substrate and compound at room temperature, 95% confidence intervals in parentheses, read-out: Human enteropeptidase IC50(initial).
The mark [7] stands for this setting: 120 min incubation of enzyme, substrate and compound at room temperature, 95% confidence intervals in parentheses, read-out: Human enteropeptidase IC50(app).
The mark [8] stands for this setting: pH 1.2, simulated gastric fluid, read-out: Kinetic aqueous solubility at pH 1.2.
The mark [9] stands for this setting: pH 6.8, aqueous buffer, read-out: Kinetic aqueous solubility at pH 6.8.
Where [10] appears, read: 6 min, supplement csv, unit inferred, read-out: human enteropeptidase IC50 (6 min).
Where [11] appears, read: 120 min, supplement csv, unit inferred, read-out: human enteropeptidase IC50 (120 min).

Where a name gives a salt, the structure may show the parent alone. Read-outs that look alike come from different tables or passages of the source.

T1 sequence (P98073 whole entry): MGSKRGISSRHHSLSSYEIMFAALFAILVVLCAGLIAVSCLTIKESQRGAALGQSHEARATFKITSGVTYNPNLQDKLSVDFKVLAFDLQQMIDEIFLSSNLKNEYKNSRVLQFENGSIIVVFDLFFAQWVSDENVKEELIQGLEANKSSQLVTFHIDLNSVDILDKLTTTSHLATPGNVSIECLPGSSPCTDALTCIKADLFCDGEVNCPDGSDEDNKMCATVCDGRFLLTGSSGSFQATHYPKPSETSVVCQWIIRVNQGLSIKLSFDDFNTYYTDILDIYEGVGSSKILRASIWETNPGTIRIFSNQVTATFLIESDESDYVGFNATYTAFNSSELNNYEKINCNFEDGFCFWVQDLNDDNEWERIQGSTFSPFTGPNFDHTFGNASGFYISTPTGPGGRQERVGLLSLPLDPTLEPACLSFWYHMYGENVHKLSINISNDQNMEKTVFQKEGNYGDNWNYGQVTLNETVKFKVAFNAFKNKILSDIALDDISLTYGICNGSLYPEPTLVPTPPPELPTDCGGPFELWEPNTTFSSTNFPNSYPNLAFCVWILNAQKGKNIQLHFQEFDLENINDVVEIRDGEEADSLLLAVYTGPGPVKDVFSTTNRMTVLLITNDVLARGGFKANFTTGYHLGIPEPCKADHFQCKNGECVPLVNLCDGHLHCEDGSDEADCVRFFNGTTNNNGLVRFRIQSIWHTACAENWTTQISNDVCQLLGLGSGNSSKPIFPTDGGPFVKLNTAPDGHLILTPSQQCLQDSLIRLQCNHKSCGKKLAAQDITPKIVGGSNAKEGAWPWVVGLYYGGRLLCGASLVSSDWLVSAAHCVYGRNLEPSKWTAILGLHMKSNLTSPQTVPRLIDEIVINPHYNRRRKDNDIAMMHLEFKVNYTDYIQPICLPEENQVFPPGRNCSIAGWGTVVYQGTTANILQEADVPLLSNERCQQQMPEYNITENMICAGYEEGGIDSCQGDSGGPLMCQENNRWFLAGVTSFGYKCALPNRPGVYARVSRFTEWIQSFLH

In general, IC50 refers to the concentration that inhibits the measured activity by half. As a reminder, the solubility (kinetic) is solubility judged after dilution from a stock solution rather than from solid. With `N=C(N)Nc1ccc(C(=O)Oc2cccc(CC(=O)N[C@@H](CC(=O)O)C(=O)O)c2)cc1.O=C(O)C(F)(F)F` [4a, N-({3-[(4-Carbamimidamidobenzoyl)oxy]phenyl}acetyl)-L-aspartic Acid Trifluoroacetic Acid Salt], the concentration for half-maximal inhibition (IC50) is 32 nM on human enteropeptidase [1] (setting [6]) and 1.6 nM at human enteropeptidase [1] (setting [7]). Also, the “stability at pH 1.2 (% decomposed)” value in series [2] is 2.8 % decomposed. Besides, in series [2], the “stability at pH 6.8 (% decomposed)” value was 5.8 % decomposed. For the same molecule, the solubility (kinetic) in series [3] (setting [8]) is more than 86 µg/mL; in series [3] (setting [9]), more than 92 µg/mL. Moreover, in the series with High-Fat-Diet-Fed Mice, the “fecal protein output (fold of 2a)” value is given as 0.97 fold of 2a.
For the molecule `N=C(N)Nc1ccc(C(=O)Oc2ccc3c(c2)OC(CC(=O)N[C@@H](CC(=O)O)C(=O)O)C3)cc1` (stereo partly drawn) [5a, N-({6-[(4-Carbamimidamidobenzoyl)oxy]-2,3-dihydro-1-benzofuran-2-yl}acetyl)-L-aspartic Acid], the IC50 is 180 nM on human enteropeptidase [1] (setting [6]) and 14 nM on human enteropeptidase [1] (setting [7]).
Take `Cc1cc(OC(=O)c2ccc(NC(=N)N)cc2)no1.Cl` [1a]: the IC50 on human enteropeptidase [1] (setting [10]) stood at 1500 nM. Also, the Papp in series [4] (pH 7.4, read-out: PAMPA at pH 7.4) turned out to be 0.3 ×10⁻⁶ cm/s; in series [4] (pH 5.0, read-out: PAMPA at pH 5.0), 0.5 ×10⁻⁶ cm/s.
On to `N=C(N)Nc1ccc(C(=O)Oc2ccc(CC(=O)N[C@@H](CC(N)=O)C(=O)O)cc2)cc1` [2b, N^2-({4-[(4-Carbamimidamidobenzoyl)oxy]phenyl}acetyl)-L-asparagine Trifluoroacetic Acid Salt], for which the results for the IC50 on human enteropeptidase [1] (setting [6]) and on human enteropeptidase [1] (setting [7]) were 310 nM and 23 nM, respectively.
In the case of `N=C(N)Nc1ccc(C(=O)Oc2cccc(C(=O)N[C@@H](CC(=O)O)C(=O)O)c2)cc1.O=C(O)C(F)(F)F` [4b, N-{3-[(4-Carbamimidamidobenzoyl)oxy]benzoyl}-L-aspartic Acid Trifluoroacetic Acid Salt], the concentration for half-maximal inhibition (IC50) on human enteropeptidase [1] (setting [6]) is 13 nM; on human enteropeptidase [1] (setting [7]) it was 0.82 nM. For the same molecule, the “stability at pH 1.2 (% decomposed)” value in series [2] is 3.9 % decomposed. For the same molecule, the “stability at pH 6.8 (% decomposed)” value in series [2] was found to be 8.6 % decomposed. Further, the kinetic solubility in series [3] (setting [8]) is more than 91 µg/mL; in series [3] (setting [9]), more than 89 µg/mL. In the series with High-Fat-Diet-Fed Mice, the “fecal protein output (fold of 2a)” value is on record as 0.82 fold of 2a.
As for `N=C(N)Nc1ccc(C(=O)Oc2ccc(CC(=O)NCC(=O)O)cc2)cc1.O=C(O)C(F)(F)F` [1c, N-({4-[(4-Carbamimidamidobenzoyl)oxy]phenyl}acetyl)glycine Trifluoroacetic Acid Salt], the figures for the IC50 on human enteropeptidase [1] (setting [10]) and on human enteropeptidase [1] (setting [11]) were 540 nM and 30 nM, respectively. Moreover, the “PAMPA at pH 5.0” value in series [4] (pH 5.0) is reported as 2 nm/sec. Moreover, in series [4] (pH 7.4), the “PAMPA at pH 7.4” value is recorded as 2 nm/sec.
On to `CC(=O)N[C@@H](C)C(=O)N[C@@H](Cc1ccccc1)C(=O)N[C@@H](CCCCN)B1O[C@@H]2C[C@@H]3C[C@@H](C3(C)C)[C@]2(C)O1` [OBE-2008], for which the “rate of body weight gain” value in the series with DIO mice was “significantly reduced”.
In the case of `CS(=O)(=O)O.N=C(N)Nc1ccc(C(=O)Oc2ccccc2)cc1` [1b], the IC50 at human enteropeptidase [1] (setting [10]) came to 5600 nM; at human enteropeptidase [1] (setting [11]), 400 nM. For the same molecule, the “PAMPA at pH 5.0” value in series [4] (pH 5.0) is less than 2 nm/sec. Besides, the “PAMPA at pH 7.4” value in series [4] (pH 7.4) is recorded as less than 2 nm/sec.
As to `Cc1cc(C(=O)Oc2ccc(CC(=O)N[C@@H](CC(=O)O)C(=O)O)cc2)ccc1NC(=N)N` [3a, N-({4-[(4-Carbamimidamido-3-methylbenzoyl)oxy]phenyl}acetyl)-L-aspartic Acid], the “fold decrease in IC50(initial) relative to 2a” value on human enteropeptidase [1] (6 min, methyl group at the 3-position) is given as “more than 30 fold”. Also, the IC50 at human enteropeptidase [1] (setting [6]) is more than 3300 nM; on human enteropeptidase [1] (setting [7]), 680 nM.
For the molecule `N=C(N)Nc1ccc(C(=O)Oc2ccc3c(c2)OC[C@@H]3CC(=O)N[C@@H](CC(=O)O)C(=O)O)cc1` [(R)-5b, N-({(3R)-6-[(4-Carbamimidamidobenzoyl)oxy]-2,3-dihydro-1-benzofuran-3-yl}acetyl)-L-aspartic Acid], the IC50 was 84 nM at human enteropeptidase [1] (setting [6]) and 7.7 nM on human enteropeptidase [1] (setting [7]). The “fecal protein output (fold of 2a)” value in the series with High-Fat-Diet-Fed Mice is recorded as 1.26 fold of 2a.
For `N=C(N)Nc1ccc(C(=O)Oc2ccc(CC(=O)N[C@@H](CC(=O)O)C(=O)O)cc2)c(Cl)c1` [3c, N-({4-[(4-Carbamimidamido-2-chlorobenzoyl)oxy]phenyl}acetyl)-L-aspartic Acid], the results for the IC50 at human enteropeptidase [1] (setting [6]) and at human enteropeptidase [1] (setting [7]) were 57 nM and 5.6 nM, respectively. Moreover, the “T1/2, half-time of dissociation from human enteropeptidase” value (“T1/2, half-time of dissociation” for short) on human enteropeptidase [5] stood at 14 min.
On to `N=C(N)Nc1ccc(C(=O)Oc2cccc(C3=NO[C@@](CC(=O)O)(C(=O)O)C3)c2)cc1` [6c, (5S)-3-{3-[(4-Carbamimidamidobenzoyl)oxy]phenyl}-5-(carboxymethyl)-4,5-dihydro-1,2-oxazole-5-carboxylic Acid], for which the 50% inhibitory concentration (IC50) on human enteropeptidase [1] (setting [6]) stood at 26 nM; at human enteropeptidase [1] (setting [7]), 1.8 nM. In addition, the “fecal protein output (fold of 2a)” value in the series on High-Fat-Diet-Fed Mice is listed as 1.23 fold of 2a.
Take `N=C(N)Nc1ccc(C(=O)Oc2ccc(CC(=O)N[C@@H](CC(=O)O)C(=O)O)cc2)c(F)c1` [3d, N-({4-[(4-Carbamimidamido-2-fluorobenzoyl)oxy]phenyl}acetyl)-L-aspartic Acid]: the IC50 at human enteropeptidase [1] (setting [6]) was determined as 7.4 nM; on human enteropeptidase [1] (setting [7]), 0.81 nM. Further, on human enteropeptidase [5], the “T1/2, half-time of dissociation” value came out at 6.1 min.
Turning to `Cc1cc(NC(=N)N)ccc1C(=O)Oc1ccc(CC(=O)N[C@@H](CC(=O)O)C(=O)O)cc1` [3b, N-({4-[(4-Carbamimidamido-2-methylbenzoyl)oxy]phenyl}acetyl)-L-aspartic Acid], the IC50 was 940 nM at human enteropeptidase [1] (setting [6]) and 54 nM at human enteropeptidase [1] (setting [7]). The “T1/2, half-time of dissociation” value at human enteropeptidase [5] is listed as more than 120 min.
`N=C(N)Nc1ccc(C(=O)Oc2ccc(C(=O)N[C@@H](CC(=O)O)C(=O)O)cc2)cc1.O=C(O)C(F)(F)F` [4c, N-{4-[(4-Carbamimidamidobenzoyl)oxy]benzoyl}-L-aspartic Acid Trifluoroacetic Acid Salt]: the figures for the IC50 on human enteropeptidase [1] (setting [6]) and on human enteropeptidase [1] (setting [7]) were 65 nM and 3.2 nM, respectively. Also, the solubility (kinetic) is 69 µg/mL in series [3] (setting [8]) and more than 88 µg/mL in series [3] (setting [9]). Moreover, the “fecal protein output (fold of 2a)” value with High-Fat-Diet-Fed Mice was 0.88 fold of 2a.
For `N=C(N)Nc1ccc(C(=O)Oc2ccc(CC(=O)N[C@@H](CCC(=O)O)C(=O)O)cc2)cc1` [2c, N-({4-[(4-Carbamimidamidobenzoyl)oxy]phenyl}acetyl)-L-glutamic Acid Hydrochloride], the IC50 at human enteropeptidase [1] (setting [6]) turned out to be 120 nM; at human enteropeptidase [1] (setting [7]) it was 7.9 nM.

(Values after PMC9234964, “Design, Synthesis, and Biological Evaluation of a Novel Series of 4-Guanidinobenzoate Derivatives as Enteropeptidase Inhibitors with Low Systemic Exposure for the Treatment of Obesity” (Journal of Medicinal Chemistry, 2022).)
